Results published in US20050250677A1, “Glycopeptide antibiotic derivatives” (priority 2002, published 2005).
Entries after “also recorded” stand apart in the source; their conditions may differ. Where two headings read alike, the source gives them in different places.

Assays:
HIV-1 (IIIB) = assay: Inhibition of HIV-1 (IIIB)-induced cytopathicity (giant cell formation) in CEM cells; type: cell-based
Procedure: (§1) A variety of glycopeptide antibiotic derivatives of vancomycin, eremomycin and teicoplanin including their aglycon derivatives were evaluated for their inhibitory activity against HIV-1 (IIIB) and HIV-2(ROD) in CEM cell cultures.

HIV-2(ROD) = assay: Inhibition of HIV-2 (ROD)-induced cytopathicity (giant cell formation) in CEM cells; type: cell-based; conditions: read-out: EC50 HIV-2 (concentration required to inhibit HIV-induced giant cell formation by 50%); HIV-2, CEM cell cultures
Procedure: as §1

murine leukemia L1210 = assay: Cytostatic activity assay, L1210 cells; type: cell-based; conditions: read-out: IC50 L1210 (compound concentration required to inhibit tumor cell proliferation by 50%)
[1] = test system: human lymphocyte Molt4/clone 8; assay: Cytostatic activity assay, Molt4/clone 8 cells; type: cell-based; conditions: read-out: IC50 Molt4/C8 (compound concentration required to inhibit tumor cell proliferation by 50%)
human lymphocyte CEM = assay: Cytostatic activity assay, CEM cells; type: cell-based; conditions: read-out: IC50 CEM (compound concentration required to inhibit tumor cell proliferation by 50%)
VZV (wild-type strains) = assay: Anti-VZV assay (wild-type strains): virus-induced cytopathicity in HEL cell cultures; type: cell-based, varicella-zoster virus; conditions: for EC50: HEL cell cultures
FCV = assay: Feline corona virus assay in Feline Crandel kidney cells (MTS); type: cell-based; conditions: for EC50: FCV in FCK cells, read-out: EC50 FCV
Procedure: Feline Crandel kidney cells were seeded in 96-well microtiter plates at 24,000 cells/well. Then, 24 hrs later, an appropriate inoculum of FCV is added together with 5-fold dilutions of the test compounds. After 4 days, a MTS/PMS solution was added to each well. Following a 90 min incubation period at 37° C., the optical density of the wells was read at 498 nm in a microplate reader.

[2] = test system: SARS virus (strain Frankfurt-1); assay: microbe, parasite or virus in culture; type: cell-based, human corona (SARS) virus; conditions: SARS virus in Vero cells; read-out: EC50 SARS virus
HEL cells [3] = test system: HEL cells
HEL cells [4] = conditions: read-out: CC50 (HEL)
FCK cells = conditions: read-out: CC50 FCK; FCK cells
Vero cells = conditions: read-out: CC50 Vero
CMV = assay: Anti-CMV assay: virus-induced cytopathicity in HEL cell cultures
HSV-1 (KOS) = assay: Anti-HSV-1 assay: virus-induced cytopathicity in HEL cell cultures
HSV-2 (G) = assay: Anti-HSV-2 assay: virus-induced cytopathicity in HEL cell cultures
[5] = read-out: EC50 HIV-1 (concentration required to inhibit HIV-induced giant cell formation by 50%), HIV-1, CEM cell cultures
[6] = VZV strain OKA, read-out: EC50 VZV (OKA)
[7] = VZV strain YS, read-out: EC50 VZV (YS)
[8] = read-out: EC50 CMV AD-169, CMV strain AD-169, HEL cell cultures
[9] = read-out: EC50 CMV Davis, CMV strain Davis, HEL cell cultures
[10] = read-out: EC50 HSV-1 (KOS), HEL cell cultures
[11] = read-out: EC50 HSV-2 (G), HEL cell cultures

Molecule	EC50 (HIV-2(ROD)) [µM]	IC50 (murine leukemia L1210) [µM]	IC50 [1] [µM]	IC50 (human lymphocyte CEM) [µM]	EC50 (VZV (wild-type strains); [6]) [µM]	EC50 (VZV (wild-type strains); [7]) [µM]	EC50 (FCV) [µM]	EC50 [2] [µM]	MTC (HEL) (HEL cells [3]; anti-VZV table)	CC50 (HEL cells [4]; HEL cells, anti-VZV table) [µM]	CC50 (FCK cells) [µM]	CC50 (Vero cells) [µM]	CC50 (HEL cells [4]; HEL cell proliferation) [µM]	EC50 (HSV-1 (KOS); [10]) [µM]	EC50 (HSV-2 (G); [11]) [µM]	also measured
NCCCCCCNC(=O)C1NC(=O)C2NC(=O)C(NC(=O)C3NC(=O)C4NC(=O)C(Cc5ccc(c(Cl)c5)Oc5cc3cc(c5O)Oc3ccc(cc3Cl)C2O)NC(=O)C(N)c2ccc(O)c(c2)Oc2cc(O)cc4c2)c2ccc(O)c(c2)-c2c(O)cc(O)cc21 (stereo not drawn) [Compound 41]	17.5 ± 3.5	> 500	> 500	> 500	> 5	12	21	44	≧20-50 μM	190	> 50	> 100	–	–	–	EC50 (HIV-1 (IIIB); [5]): 15 µM
CCCCOc1ccc(CN2CCN(C(=O)C3NC(=O)C4NC(=O)C(NC(=O)C5NC(=O)C6NC(=O)C(Cc7ccc(c(Cl)c7)Oc7cc5cc(c7O)Oc5ccc(cc5Cl)C4O)NC(=O)C(N)c4ccc(O)c(c4)Oc4cc(O)cc6c4)c4ccc(O)c(c4)-c4c(O)cc(O)cc43)CC2)cc1 (stereo not drawn) [Compound 125]	–	–	–	–	0.32	0.25	1.6	10	≧2-20 μM	44	14	> 100	–	–	–	MTC (HEL) (HEL cells [3]; anti-CMV table): ≧2-20 μM; CC50 (HEL cells [4]; HEL cells, anti-CMV table): 44 µM; anti-CMV activity (CMV): anti-CMV activity; EC50 (CMV; [8]): 1.9 µM; EC50 (CMV; [9]): 2.8 µM
CCCCc1ccc(CN2CCN(C(=O)C3NC(=O)C4NC(=O)C(NC(=O)C5NC(=O)C6NC(=O)C(Cc7ccc(c(Cl)c7)Oc7cc5cc(c7O)Oc5ccc(cc5Cl)C4O)NC(=O)C(N)c4ccc(O)c(c4)Oc4cc(O)cc6c4)c4ccc(O)c(c4)-c4c(O)cc(O)cc43)CC2)cc1 (stereo not drawn) [Compound 124]	–	–	–	–	0.34	0.22	–	15	≧5-100 μM	71	17	> 100	–	–	–	MTC (HEL) (HEL cells [3]; anti-CMV table): ≧5-100 μM; CC50 (HEL cells [4]; HEL cells, anti-CMV table): 71 µM; anti-CMV activity (CMV): anti-CMV activity; EC50 (CMV; [8]): 2.4 µM; EC50 (CMV; [9]): 3.2 µM
CCCCc1ccc(CN2CCN(Cc3c(O)cc4c(c3O)-c3cc(ccc3O)C3NC(=O)C5NC(=O)C(CC(N)=O)NC(=O)C(NC(=O)C(CC(C)C)NC)C(O)c6ccc(c(Cl)c6)Oc6cc5cc(c6OC5OC(CO)C(O)C(O)C5OC5CC(C)(N)C(O)C(C)O5)Oc5ccc(cc5)C(OC5CC(C)(N)C(O)C(C)O5)C(NC3=O)C(=O)NC4C(=O)NC)CC2)cc1 (stereo not drawn) [Compound 5]	> 10	24 ± 0.4	17 ± 3	40 ± 4	–	–	5.4	13	–	–	28	54	–	–	–	EC50 (HIV-1 (IIIB); HIV-1 (IIIB), CEM cell cultures, read-out: EC50 against HIV-1): 0.43 µM; activity against FCV (FCV): active; also recorded: pronounced activity
CCCCOc1ccc(CNCCOc2c3cc4cc2Oc2ccc(cc2Cl)C(O)C2NC(=O)C(NC(=O)C4NC(=O)C4NC(=O)C(Cc5ccc(c(Cl)c5)O3)NC(=O)C(NCc3ccc(OCCCC)cc3)c3ccc(O)c(c3)Oc3cc(O)cc4c3)c3ccc(O)c(c3)-c3c(O)cc(O)cc3C(C(=O)O)NC2=O)cc1 (stereo not drawn) [Compound 132]	–	–	–	–	0.97	–	–	–	≧5-20 μM	40	–	–	40	9.6	9.6	MTC (HEL) (HEL cells [3]): ≧5-20 μM; activity against HSV-1 (HSV-1 (KOS)): activity; activity against HSV-2 (HSV-2 (G)): activity
Ristosaminylaglycon of ristomycin [Compound 88]	–	–	–	–	–	–	–	–	–	–	–	–	> 50	120	> 200	–
CC1(C)SC2C(NC(=O)C3NC(=O)C4NC(=O)C(NC(=O)C5NC(=O)C6NC(=O)C(Cc7ccc(c(Cl)c7)Oc7cc5cc(c7O)Oc5ccc(cc5Cl)C4O)NC(=O)C(N)c4ccc(O)c(c4)Oc4cc(O)cc6c4)c4ccc(O)c(c4)-c4c(O)cc(O)cc43)C(=O)N2C1C(=O)O (stereo not drawn) [Compound 145]	–	–	–	–	3.9	2.8	–	–	–	> 50	–	–	> 50	48	48	–
NC1C(=O)NC2Cc3ccc(c(Cl)c3)Oc3cc4cc(c3O)Oc3ccc(cc3Cl)C(O)C3NC(=O)C(NC(=O)C4NC(=O)C(NC2=O)c2cc(O)cc(c2)Oc2cc1ccc2O)c1ccc(O)c(c1)-c1c(O)cc(O)cc1C(C(=O)NCc1ccc(F)cc1)NC3=O (stereo not drawn) [Compound 165]	30 ± 7.1	240 ± 15	≥ 250	> 250	–	–	11	26	–	–	80	> 100	–	–	–	EC50 (HIV-1 (IIIB); [5]): 9 ± 5.3 µM
CN(C)CCCNC(=O)C1NC(=O)C2NC(=O)C(NC(=O)C3NC(=O)C4NC(=O)C(Cc5ccc(c(Cl)c5)Oc5cc3cc(c5O)Oc3ccc(cc3Cl)C2O)NC(=O)C(N)c2ccc(O)c(c2)Oc2cc(O)cc4c2)c2ccc(O)c(c2)-c2c1cc(O)c(CN1CCN(Cc3ccc(-c4ccccc4)cc3)CC1)c2O (stereo not drawn) [Compound 28]	8.5 ± 2.1	318 ± 256	> 500	> 500	2.5	2	> 50	16	≧5-20 μM	105	21	> 100	–	–	–	EC50 (HIV-1 (IIIB); [5]): 3.5 ± 0.7 µM
CN(Cc1ccc(Cl)cc1)Cc1c(O)cc2c(c1O)-c1cc(ccc1O)C1NC(=O)C3NC(=O)C4NC(=O)C(Cc5ccc(c(Cl)c5)Oc5cc3cc(c5O)Oc3ccc(cc3Cl)C(O)C(NC1=O)C(=O)NC2C(=O)O)NC(=O)C(N)c1ccc(O)c(c1)Oc1cc(O)cc4c1 (stereo not drawn) [Compound 115]	–	–	–	–	> 5	8.9	–	–	≧20-200 μM	50	–	–	50	80	> 16	MTC (HEL) (HEL cells [3]): ≧20-200 μM
CC(C)CC(C(=O)NC1C(=O)NC(CC(N)=O)C(=O)NC2C(=O)NC3C(=O)NC(C(=O)NC(C(=O)O)c4cc(O)c(CN5CCN(Cc6ccc(-c7ccccc7)cc6)CC5)c(O)c4-c4cc3ccc4O)C(O)c3ccc(cc3)Oc3cc2cc(c3O)Oc2ccc(cc2Cl)C1O)N(C)C(=O)OC(C)(C)C (stereo not drawn) [Compound 98]	–	–	–	–	2.3	1.3	–	–	≧20-200 μM	> 50	–	–	> 50	–	–	activity against VZV (VZV (wild-type strains)): pronounced activity; MTC (HEL) (HEL cells [3]): ≧20-200 μM; EC50 (HSV-1 (KOS); read-out: EC50 HSV-1): 24 µM; EC50 (HSV-2 (G); read-out: EC50 HSV-2): 24 µM
